Results from ChEMBL document CHEMBL4680201, “Design, synthesis, and pharmacological evaluation of 4- or 6-phenyl-pyrimidine derivatives as novel and selective Janus kinase 3 inhibitors” (Eur J Med Chem, 2020).
Activity calls are given as the source filed them. The rule behind the calls is not given here.

Experiments:
[1] = biological target: T1, Tyrosine-protein kinase JAK2 (Homo sapiens, UniProt O60674); assay: Inhibition of recombinant human C-terminal His6-tagged JAK2 (808 to end residues) expressed in baculovirus infected Sf21 insect cells using Biotin-TYR1 (Biotin-(Ahx)-GAEEEIYAAFFA-COOH as substrate
T1 sequence (O60674 whole entry, the tested form may be a part): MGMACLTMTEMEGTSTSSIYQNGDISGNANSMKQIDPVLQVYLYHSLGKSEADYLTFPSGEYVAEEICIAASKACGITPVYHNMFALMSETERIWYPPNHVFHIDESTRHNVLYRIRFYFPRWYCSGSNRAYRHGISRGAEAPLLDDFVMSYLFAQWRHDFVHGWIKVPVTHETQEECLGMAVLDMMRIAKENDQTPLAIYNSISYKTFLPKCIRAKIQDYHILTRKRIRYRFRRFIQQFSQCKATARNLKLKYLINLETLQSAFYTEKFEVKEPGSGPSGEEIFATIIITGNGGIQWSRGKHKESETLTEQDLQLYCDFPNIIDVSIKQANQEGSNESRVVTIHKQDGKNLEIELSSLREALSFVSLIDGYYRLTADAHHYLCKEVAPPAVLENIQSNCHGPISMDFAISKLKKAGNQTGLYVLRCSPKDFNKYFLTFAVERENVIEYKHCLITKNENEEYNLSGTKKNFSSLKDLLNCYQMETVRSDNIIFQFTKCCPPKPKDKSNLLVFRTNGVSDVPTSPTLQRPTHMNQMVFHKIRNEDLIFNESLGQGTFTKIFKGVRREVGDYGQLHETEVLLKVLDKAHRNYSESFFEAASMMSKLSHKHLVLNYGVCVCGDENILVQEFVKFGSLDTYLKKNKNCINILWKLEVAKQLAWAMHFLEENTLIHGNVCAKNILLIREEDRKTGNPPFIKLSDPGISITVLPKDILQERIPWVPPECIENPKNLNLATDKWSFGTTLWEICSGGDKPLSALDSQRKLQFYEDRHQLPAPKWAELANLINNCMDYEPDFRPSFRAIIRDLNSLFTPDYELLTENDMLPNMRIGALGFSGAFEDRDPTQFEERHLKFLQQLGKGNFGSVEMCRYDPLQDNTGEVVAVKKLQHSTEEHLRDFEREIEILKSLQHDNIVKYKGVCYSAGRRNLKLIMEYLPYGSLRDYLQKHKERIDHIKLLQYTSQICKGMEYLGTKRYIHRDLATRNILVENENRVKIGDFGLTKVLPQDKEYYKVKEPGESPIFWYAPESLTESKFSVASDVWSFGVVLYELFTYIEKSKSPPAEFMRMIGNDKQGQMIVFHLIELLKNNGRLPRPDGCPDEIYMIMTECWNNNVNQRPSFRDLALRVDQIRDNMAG

Homo sapiens [2] = species: Homo sapiens; assay: Selectivity ratio of IC50 for inhibition of recombinant human C-terminal His6-tagged JAK2 (808 to end residues) expressed in baculovirus infected Sf21 insect cells to IC50 for inhibition of recombinant human GST-tagged JAK3 catalytic domain (811 to 1103 residues) expressed in Sf9 insect cells
Homo sapiens [3] = species: Homo sapiens; assay: Selectivity ratio of IC50 for inhibition of recombinant human GST-tagged JAK1 catalytic domain (845 to 1142 residues) expressed in Sf9 insect cells to IC50 for inhibition of recombinant human GST-tagged JAK3 catalytic domain (811 to 1103 residues) expressed in Sf9 insect cells
[4] = Cytotoxicity against resting mouse T cells assessed as reduction in cell viability at 10 uM measured after 72 hrs by MTS assay; assay type: cell-based
[5] = biological target: T2, Tyrosine-protein kinase JAK3 (Mus musculus) (UniProt Q62137); assay: Inhibition of JAK3 in anti-CD3/-CD28 coated mouse T cells assessed as reduction in IL15-induced STAT5 phosphorylation at 10 uM preincubated for 1 hr followed by […] and measured after 30 mins by Western blot analysis; settings: T cell
T2 sequence (whole entry): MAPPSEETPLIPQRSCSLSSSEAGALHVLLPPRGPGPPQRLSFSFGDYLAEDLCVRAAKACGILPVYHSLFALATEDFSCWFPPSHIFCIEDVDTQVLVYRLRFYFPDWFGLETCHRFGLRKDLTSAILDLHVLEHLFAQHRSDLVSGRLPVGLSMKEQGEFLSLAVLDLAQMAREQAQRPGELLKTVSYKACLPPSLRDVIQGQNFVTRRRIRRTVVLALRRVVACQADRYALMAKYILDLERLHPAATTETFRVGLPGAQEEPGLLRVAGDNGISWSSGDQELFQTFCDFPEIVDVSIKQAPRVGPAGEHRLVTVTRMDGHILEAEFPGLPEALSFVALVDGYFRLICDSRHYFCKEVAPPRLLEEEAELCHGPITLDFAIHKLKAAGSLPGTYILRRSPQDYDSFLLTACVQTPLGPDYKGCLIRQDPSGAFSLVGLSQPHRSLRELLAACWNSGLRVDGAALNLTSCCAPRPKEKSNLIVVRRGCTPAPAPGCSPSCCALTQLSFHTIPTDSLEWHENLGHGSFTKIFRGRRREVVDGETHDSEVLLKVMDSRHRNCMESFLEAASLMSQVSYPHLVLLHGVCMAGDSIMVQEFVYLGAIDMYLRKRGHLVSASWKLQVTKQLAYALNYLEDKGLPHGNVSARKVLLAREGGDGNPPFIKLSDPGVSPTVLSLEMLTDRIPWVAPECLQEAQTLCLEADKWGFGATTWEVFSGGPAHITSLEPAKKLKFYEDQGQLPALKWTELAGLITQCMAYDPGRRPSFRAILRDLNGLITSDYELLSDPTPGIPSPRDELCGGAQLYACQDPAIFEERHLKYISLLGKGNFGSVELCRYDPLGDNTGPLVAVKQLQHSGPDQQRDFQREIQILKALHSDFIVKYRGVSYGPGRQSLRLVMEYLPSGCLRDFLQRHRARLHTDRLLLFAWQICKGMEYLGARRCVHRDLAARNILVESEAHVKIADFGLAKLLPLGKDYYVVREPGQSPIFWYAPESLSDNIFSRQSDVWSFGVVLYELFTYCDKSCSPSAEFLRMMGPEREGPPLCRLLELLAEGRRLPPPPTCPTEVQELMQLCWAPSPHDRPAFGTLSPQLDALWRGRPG

[6] = biological target: Tyrosine-protein kinase JAK1 (Homo sapiens, UniProt P23458); assay: Inhibition of recombinant human GST-tagged JAK1 cytoplasmic domain (866 to 1154 residues) expressed in baculovirus expression system using TK-substrate-biotin preincubated for 5 mins followed by substrate addition and measured after 30 mins by HTRF assay
Chain of Tyrosine-protein kinase JAK1 (P23458 whole entry, the tested form may be a part): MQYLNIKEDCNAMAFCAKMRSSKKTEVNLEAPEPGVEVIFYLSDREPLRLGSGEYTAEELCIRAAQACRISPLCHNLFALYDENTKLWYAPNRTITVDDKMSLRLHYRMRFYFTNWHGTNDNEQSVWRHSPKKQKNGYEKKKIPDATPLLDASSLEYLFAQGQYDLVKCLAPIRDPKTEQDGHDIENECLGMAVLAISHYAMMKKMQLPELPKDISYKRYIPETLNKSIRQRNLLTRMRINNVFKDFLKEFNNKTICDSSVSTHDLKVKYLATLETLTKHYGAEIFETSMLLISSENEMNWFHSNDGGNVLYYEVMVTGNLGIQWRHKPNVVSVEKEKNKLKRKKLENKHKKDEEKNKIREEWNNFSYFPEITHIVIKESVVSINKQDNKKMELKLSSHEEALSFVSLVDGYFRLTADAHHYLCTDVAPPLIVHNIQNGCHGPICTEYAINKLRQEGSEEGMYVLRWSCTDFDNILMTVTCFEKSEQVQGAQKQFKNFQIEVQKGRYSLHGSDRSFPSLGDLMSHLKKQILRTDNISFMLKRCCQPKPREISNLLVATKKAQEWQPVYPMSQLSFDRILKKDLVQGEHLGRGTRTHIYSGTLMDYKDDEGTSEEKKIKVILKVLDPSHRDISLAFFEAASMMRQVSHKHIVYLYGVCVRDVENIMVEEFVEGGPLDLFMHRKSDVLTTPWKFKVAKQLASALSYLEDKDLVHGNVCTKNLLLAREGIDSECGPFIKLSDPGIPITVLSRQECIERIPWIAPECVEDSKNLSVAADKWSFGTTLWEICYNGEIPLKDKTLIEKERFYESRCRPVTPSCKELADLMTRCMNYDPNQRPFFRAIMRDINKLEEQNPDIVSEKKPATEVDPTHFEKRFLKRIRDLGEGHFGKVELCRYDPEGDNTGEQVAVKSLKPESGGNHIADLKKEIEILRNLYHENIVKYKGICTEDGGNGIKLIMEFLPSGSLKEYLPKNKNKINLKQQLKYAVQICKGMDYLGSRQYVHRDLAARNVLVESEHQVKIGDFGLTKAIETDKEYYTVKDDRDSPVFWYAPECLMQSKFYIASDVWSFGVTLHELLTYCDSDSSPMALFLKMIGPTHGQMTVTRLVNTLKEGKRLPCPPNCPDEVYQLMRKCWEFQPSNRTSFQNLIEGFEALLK

[7] = Cytotoxicity against IL-4-treated mouse T cells assessed as reduction in cell viability at 10 uM measured after 72 hrs by MTS assay; assay type: cell-based
RAW264.7 = assay: Cytotoxicity against mouse RAW264.7 cells assessed as reduction in cell viability at 10 uM measured after 72 hrs by MTS assay; assay type: cell-based; settings: raw264.7, 72 h
[8] = biological target: T3, Tyrosine-protein kinase JAK3 (Homo sapiens, UniProt P52333)
T3 sequence (P52333 whole entry): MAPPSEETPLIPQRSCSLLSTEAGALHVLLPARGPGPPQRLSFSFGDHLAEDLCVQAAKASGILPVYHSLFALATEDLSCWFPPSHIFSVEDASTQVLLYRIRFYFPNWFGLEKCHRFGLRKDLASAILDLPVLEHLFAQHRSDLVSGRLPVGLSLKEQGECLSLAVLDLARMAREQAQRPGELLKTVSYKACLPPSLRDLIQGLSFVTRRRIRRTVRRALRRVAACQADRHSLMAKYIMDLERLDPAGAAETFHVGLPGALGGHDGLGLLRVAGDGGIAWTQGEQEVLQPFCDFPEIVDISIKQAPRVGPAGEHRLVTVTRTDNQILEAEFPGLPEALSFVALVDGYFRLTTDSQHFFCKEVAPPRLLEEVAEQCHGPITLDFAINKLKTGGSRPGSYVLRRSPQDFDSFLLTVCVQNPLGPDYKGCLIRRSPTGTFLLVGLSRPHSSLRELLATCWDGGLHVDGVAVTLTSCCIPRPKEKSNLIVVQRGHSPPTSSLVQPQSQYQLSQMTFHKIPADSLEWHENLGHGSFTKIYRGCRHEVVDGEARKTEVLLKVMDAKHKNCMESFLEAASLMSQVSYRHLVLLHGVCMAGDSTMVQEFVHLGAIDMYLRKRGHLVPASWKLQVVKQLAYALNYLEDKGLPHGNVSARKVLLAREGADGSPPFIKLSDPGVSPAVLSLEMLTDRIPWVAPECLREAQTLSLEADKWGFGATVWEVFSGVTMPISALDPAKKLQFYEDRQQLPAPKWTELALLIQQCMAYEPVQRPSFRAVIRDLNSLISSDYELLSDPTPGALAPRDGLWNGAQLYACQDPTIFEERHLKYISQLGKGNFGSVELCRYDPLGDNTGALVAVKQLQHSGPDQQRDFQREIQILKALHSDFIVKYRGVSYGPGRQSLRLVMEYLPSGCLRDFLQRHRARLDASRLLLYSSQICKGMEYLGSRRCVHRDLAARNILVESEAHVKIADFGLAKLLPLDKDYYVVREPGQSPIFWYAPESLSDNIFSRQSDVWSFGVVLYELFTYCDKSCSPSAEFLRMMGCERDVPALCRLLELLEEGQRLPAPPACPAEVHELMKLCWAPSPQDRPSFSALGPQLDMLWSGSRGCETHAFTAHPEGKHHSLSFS

[9] = biological target: Non-receptor tyrosine-protein kinase TYK2 (Homo sapiens, UniProt P29597); assay: Inhibition of recombinant human N-terminal GST-tagged TYK2 cytoplasmic domain (833 to 1187 residues) expressed in baculovirus expression system using TK-substrate-biotin preincubated for 5 mins followed by substrate addition and measured after 30 mins by HTRF assay
Chain of Non-receptor tyrosine-protein kinase TYK2 (P29597 whole entry, the tested form may be a part): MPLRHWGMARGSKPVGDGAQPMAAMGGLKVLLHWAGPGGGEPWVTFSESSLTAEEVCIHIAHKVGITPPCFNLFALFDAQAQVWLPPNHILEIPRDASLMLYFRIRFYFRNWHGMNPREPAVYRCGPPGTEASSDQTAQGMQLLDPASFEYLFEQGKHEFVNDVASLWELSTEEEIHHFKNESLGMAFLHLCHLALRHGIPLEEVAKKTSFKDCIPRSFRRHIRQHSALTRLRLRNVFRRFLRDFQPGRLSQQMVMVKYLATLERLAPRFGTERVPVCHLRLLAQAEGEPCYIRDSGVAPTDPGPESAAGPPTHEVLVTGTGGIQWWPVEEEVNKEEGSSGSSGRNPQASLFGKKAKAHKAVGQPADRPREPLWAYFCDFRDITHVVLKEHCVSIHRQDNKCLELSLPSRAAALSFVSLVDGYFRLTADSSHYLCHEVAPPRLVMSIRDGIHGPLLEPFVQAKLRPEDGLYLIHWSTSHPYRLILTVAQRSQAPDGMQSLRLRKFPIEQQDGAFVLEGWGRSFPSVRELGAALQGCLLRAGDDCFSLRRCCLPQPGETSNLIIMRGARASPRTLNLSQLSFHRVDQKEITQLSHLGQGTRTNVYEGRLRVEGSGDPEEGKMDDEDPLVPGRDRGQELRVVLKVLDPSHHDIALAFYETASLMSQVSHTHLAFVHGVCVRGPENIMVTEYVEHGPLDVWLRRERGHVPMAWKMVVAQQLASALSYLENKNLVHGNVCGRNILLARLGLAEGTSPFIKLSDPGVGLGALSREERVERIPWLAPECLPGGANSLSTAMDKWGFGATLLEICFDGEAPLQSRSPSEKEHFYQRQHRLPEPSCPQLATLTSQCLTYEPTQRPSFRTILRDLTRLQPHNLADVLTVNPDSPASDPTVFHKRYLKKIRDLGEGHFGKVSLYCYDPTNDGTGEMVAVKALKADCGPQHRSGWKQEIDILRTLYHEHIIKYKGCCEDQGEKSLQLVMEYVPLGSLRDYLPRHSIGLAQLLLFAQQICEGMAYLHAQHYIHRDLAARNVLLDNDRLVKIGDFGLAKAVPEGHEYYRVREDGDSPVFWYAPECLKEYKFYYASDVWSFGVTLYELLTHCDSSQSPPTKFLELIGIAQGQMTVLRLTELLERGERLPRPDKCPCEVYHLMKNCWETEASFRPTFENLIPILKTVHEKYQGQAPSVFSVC

[10] = biological target: T2, Tyrosine-protein kinase JAK3 (Mus musculus); assay: Inhibition of JAK3 in anti-CD3/-CD28 coated mouse T cells assessed as reduction in IL2-induced STAT5 phosphorylation at 10 uM preincubated for 1 hr followed by IL2 stimulation and measured after 30 mins by Western blot analysis; settings: T cell
[11] = biological target: T1, Tyrosine-protein kinase JAK2; assay type: ADME

| SMILES | IC50 [1] | Ratio IC50 (Homo sapiens [2]) | Ratio IC50 (Homo sapiens [3]) | Activity [4] | inhibition [5] | IC50 [6] | Activity [7] | Activity (RAW264.7) | IC50 [8] | IC50 [9] | inhibition [10] | IC50 [11] |
| --- | --- | --- | --- | --- | --- | --- | --- | --- | --- | --- | --- | --- |
| CC[C@H]1CN(C(=O)NCC(F)(F)F)C[C@H]1C1C=NC2=CN=C3NC=CC3N21 (some centres not stated) | 0.12 µM | 19 | 49 |  |  |  |  |  |  |  |  |  |
| C=CC(=O)Nc1ccc(-c2ccnc(Nc3cnn(CCOC)c3)n2)cc1 |  |  |  | Non-Toxic | Active | 1.56 µM | Non-Toxic | Non-Toxic | 0.0091 µM | > 3 µM | Active | 1.08 µM |
